In patent publication US9383644B2, “Sulfonic acid derivative compounds as photoacid generators in resist applications” (Heraeus Precious Metals North America Daychem LLC, priority 2014, dated 2016):

Legend:
Assay type in all cases: physicochemical
[1] = Solubility of PAG in organic solvents (solvent added until completely dissolved); settings: for Solubility (w/v %) Cyclohexanone / Solubility (w/v %) PGMEA / Solubility (w/v %) GBL: 20° C.; for Solubility (w/v %) PGMEA / Solubility (w/v %) in PGMEA: Propylene glycol monomethyl ether acetate; for Solubility (w/v %) PGMEA: Table 8; for Solubility (w/v %) in PGMEA: Table 7; for Solubility (w/v %) GBL: γ-Butyrolactone; for Solubility in organic solvents (in words): PGMEA, cyclohexanone, GBL
Source text: Solubility is an important factor in the evaluation of a PAG. High solubility not only makes a PAG purified readily but also enables a PAG to be used for a wide range of concentrations in photoresists and in varied solvent systems. To test the solubility of a PAG, a solvent is slowly added until the PAG is completely dissolved and no turbidity is observed in the clear solution. Table 8 lists the solubility (w/v %) of some representative N-hydroxynaphthalimide sulfonate derivatives versus NIT in various organic solvents at 20° C. […] All compounds except for S-6 and O-12 show much higher solubility than the commercial benchmark (NIT).

[2] = Photoreactivity: photolysis of PAGs in acetonitrile at 365 nm, photoreaction constant from UV-Vis absorbance; settings: for Relative Photoreactivity (normalized photoreaction constant) at 365 nm: acetonitrile, air, room temperature, 3×10^−5 M, NIT normalized to one; for Solubility x relative Photoreactivity: product of solubility in PGMEA and relative photoreactivity at 365 nm
Source text: A photoresist composition typically comprises PAG, polymers, additives and solvents. The performance of a photoresist composition is mainly dependent on the properties of the PAG and polymer components. To formulate a high-performance photoresist composition, more photosensitive PAGs are typically selected. The photosensitivity of a PAG is typically directly related to the strength of the generated acid and the photoreactivity of the PAG. For a series of PAGs producing the same latent acid, their photosensitivity is related only to their photoreactivity. Thus evaluating the photosensitivity of a PAG can be achieved by studying its photoreactivity. The higher photoreactivity, the higher photosensitivity. The photoreactivity can be investigated by photolysis of a PAG in its dilute solution under low exposure intensity (to avoid side reactions which don't generate the desired acid). The change in the concentration of a PAG upon irradiation can be determined by measuring the absorbance of the PAG at the maximum absorption wavelength.
Photolysis of PAGs was carried out in acetonitrile in air at room temperature. The sodium salt of tetrabromophenol blue (TBPBNa), an acid indicator dye, which has a maximum absorption at 618 nm, was purchased from Aldrich (indicator grade) and used as received. Irradiation of the solution of the PAGs (3×10^−5 M) was performed using a Cole-Parmer UV 15 W bench lamp (EW-97605-50) at 365 nm. Light intensity was measured using an UV Power Puck II radiometer from EIT Inc. UV-Vis spectra were run on a Thermo Scientific Evolution 201 UV-visible spectrophotometer.
Photolysis of NIT, comparative compound A and B, S-3, and S-11 was examined in acetonitrile. The absorption band at 400 nm gradually decreases upon irradiation, indicating the progress of photoreaction with the increase of exposure dose of energy. Assuming the photoreaction is first-order, plot of natural log of changes in absorbance with exposure dose of energy gives the photoreaction constant of S-3 (i.e., the slope of the linear trendline) (FIG. 3). The photoreaction constants of other compounds were similarly determined under the same irradiation condition. Comparing the constants of A, B, S-3, and S-11 with that of NIT normalized to one gives the relative photoreactivity (Table 7). […] The formation of acid upon irradiation was confirmed by observing the spectral changes of the acid indicator, TBPBNa at 618 nm.

[3] = UV absorbance of PAG compounds (FIG. 1); settings: for Absorbance at i-, h-, and g-lines of a mercury lamp (in words): versus NIT
Source text: FIG. 1 is a graph illustrating the UV absorbance of certain PAG compounds of the invention versus the UV absorbance of certain prior art PAG compounds;
Referring to FIG. 1, the PAG compounds of the invention have excellent solubility in organic solvents and strong absorption at i-, h-, and g-lines of a mercury lamp.

SMILES | Solubility (w/v %) Cyclohexanone [1] | Solubility (w/v %) PGMEA [1] | Solubility (w/v %) in PGMEA [1] | Solubility (w/v %) GBL [1] | Relative Photoreactivity (normalized photoreaction constant) at 365 nm [2] | Solubility x relative Photoreactivity [2] | Solubility in organic solvents (in words) [1] | Strong absorption band [3] | Absorbance at i-, h-, and g-lines of a mercury lamp (in words) [3]
CCCCSc1ccc2c3c(cccc13)C(=O)N(OS(=O)(=O)C(F)(F)F)C2=O [Comparative A, reference compound] | 4.1% w/v % | 1.1% w/v % | 1.1% w/v % | 0.9% w/v % | 13.5 | 14.9% | – | – | –
O=C1c2cccc3c(C#Cc4ccccc4)ccc(c23)C(=O)N1OS(=O)(=O)C(F)(F)F [Comparative B, reference compound] | 3.5% w/v % | 1.0% w/v % | 1.0% w/v % | 1.1% w/v % | 2.5 | 2.5% | much lower | – | –
O=C1c2cccc3c(Oc4ccccc4)ccc(c23)C(=O)N1OS(=O)(=O)C(F)(F)F [Compound O-12] | 9.0% w/v % | 2.0% w/v % | – | 1.6% w/v % | – | – | – | 364 nm | much larger than that of NIT
CC(C)Sc1ccc2c3c(cccc13)C(=O)N(OS(=O)(=O)C(F)(F)F)C2=O [Compound S-3] | 16.6% w/v % | 7.2% w/v % | 7.2% w/v % | 8.1% w/v % | 13.3 | 95.8% | much higher solubility than comparative compound A | 400 nm | much larger than that of NIT

Further lines, results first:

Solubility (w/v %) Cyclohexanone [1] | Solubility (w/v %) PGMEA [1] | Solubility (w/v %) in PGMEA [1] | Solubility (w/v %) GBL [1] | Relative Photoreactivity (normalized photoreaction constant) at 365 nm [2] | Solubility x relative Photoreactivity [2] | Solubility in organic solvents (in words) [1] | Strong absorption band [3] | Absorbance at i-, h-, and g-lines of a mercury lamp (in words) [3] | SMILES
5.3% w/v % | 1.9% w/v % | – | 1.2% w/v % | – | – | – | 400 nm | much larger than that of NIT | CC(C)(C)c1ccc(Sc2ccc3c4c(cccc24)C(=O)N(OS(=O)(=O)C(F)(F)F)C3=O)cc1 [Compound S-6]
86.4% w/v % | 53.9% w/v % | 53.9% w/v % | 105.7% w/v % | 14.2 | 765.4% | extremely high solubility | – | – | COC(C)CCOC(=O)CCSc1ccc2c3c(cccc13)C(=O)N(OS(=O)(=O)C(F)(F)F)C2=O (stereo not shown) [Compound S-11]
37.5% w/v % | 11.7% w/v % | – | 67.8% w/v % | – | – | extremely high solubility | – | – | COC(C)CCOC(=O)CCSc1ccc2c3c(cccc13)C(=O)N(OS(=O)(=O)c1ccc(C)cc1)C2=O (stereo not shown) [Compound S-43]
5.9% w/v % | 1.7% w/v % | 1.7% w/v % | 2.2% w/v % | 1.0 | 1.7% | – | – | – | O=C1c2cccc3cccc(c23)C(=O)N1OS(=O)(=O)C(F)(F)F [NIT, N-Hydroxynaphthalimide triflate, reference compound]
